Common to all, as to type: functional
Experiment [1] relates to Mycobacterium tuberculosis. In words: Antimycobacterial activity against Mycobacterium tuberculosis strain resistant to para-aminosalicilyc acid (PAS).
Experiment [2] has as its system Mycobacterium tuberculosis. Description: Antimycobacterial activity against Mycobacterium tuberculosis strain resistant to ethionamide (ETA).
Experiment [3] relates to Mycobacterium tuberculosis. In words: Antimycobacterial activity against Mycobacterium tuberculosis strain resistant to pyrazinamide (PZA).
The test system of experiment [4] is Mycobacterium tuberculosis. Description: Antimycobacterial activity against Mycobacterium tuberculosis strain resistant to rifampin (RMP).
Experiment [5] has as its system Mycobacterium tuberculosis. Description: Antimycobacterial activity against Mycobacterium tuberculosis strain resistant to ethambutol (EMB).
For experiment [6], the system named is Mycobacterium tuberculosis. Description: Antimycobacterial activity against Mycobacterium tuberculosis strain resistant to kanamycin (KM).
For experiment [7], the system named is Mycobacterium tuberculosis. Description: Antimycobacterial activity against Mycobacterium tuberculosis strain resistant to isoniazid (INH).
The subject of experiment [8] is Mycobacterium tuberculosis. In words: Antimycobacterial activity against Mycobacterium tuberculosis strain resistant to thiacetazone (TAC).
For experiment [9], the system named is Mycobacterium tuberculosis. Description: Antimycobacterial activity against Mycobacterium tuberculosis strain resistant to cycloserine (CS).

Molecules are shown by their SMILES. In brackets after ≈: the same amount, converted by molar mass. A value given as a limit tells only on which side of the number the result lay.

By MIC is commonly meant the lowest concentration found to suppress growth. Low values mean inhibition by little substance, high ones a need for much substance. Take `O=S(=O)(c1ccc(Cl)cc1)n1cnc2c(S)ncnc21`: the minimal inhibitory concentration (MIC) was 6.25 µg/mL (≈ 19.1 µM) in [1]; 25 µg/mL (≈ 76.5 µM) in experiment [2]; 12.5 µg/mL (≈ 38.3 µM) in [3]; 12.5 µg/mL (≈ 38.3 µM) in experiment [4]; 6.25 µg/mL (≈ 19.1 µM) in experiment [5]; 12.5 µg/mL (≈ 38.3 µM) in experiment [6]. For the same molecule, the MIC turned out to be 12.5 µg/mL (≈ 38.3 µM) in [7], 6.25 µg/mL (≈ 19.1 µM) in [8] and 6.25 µg/mL (≈ 19.1 µM) in experiment [9].
With `CN(C)S(=O)(=O)n1cnc2c(=S)[nH]cnc21`, the MIC in experiment [1] amounted to 3.13 µg/mL (≈ 12.1 µM); in experiment [2] it was 12.5 µg/mL (≈ 48.2 µM); in [3], 3.13 µg/mL (≈ 12.1 µM); in [4], 6.25 µg/mL (≈ 24.1 µM); in experiment [5], 3.13 µg/mL (≈ 12.1 µM); in experiment [6], 6.25 µg/mL (≈ 24.1 µM). Also, the MIC in experiment [7] came out at 6.25 µg/mL (≈ 24.1 µM); in experiment [8], 3.13 µg/mL (≈ 12.1 µM); in experiment [9], 3.13 µg/mL (≈ 12.1 µM).
`Nc1cccc(S(=O)(=O)n2cnc3c(S)ncnc32)c1`: the minimal inhibitory concentration (MIC) is 12.5 µg/mL (≈ 40.7 µM) in [1]; 50 µg/mL (≈ 163 µM) in experiment [2]; 12.5 µg/mL (≈ 40.7 µM) in experiment [3]; 12.5 µg/mL (≈ 40.7 µM) in [4]; 12.5 µg/mL (≈ 40.7 µM) in experiment [5]; 12.5 µg/mL (≈ 40.7 µM) in [6]. Besides, the minimal inhibitory concentration (MIC) in [7], in experiment [8] and in [9] was 12.5 µg/mL (≈ 40.7 µM) throughout.
For `O=[N+]([O-])c1ccc(Sn2cnc3c(S)ncnc32)cc1`, the MIC in experiment [4] was 0.78 µg/mL (≈ 2.55 µM); in experiment [5], 0.78 µg/mL (≈ 2.55 µM); in [6], 1.56 µg/mL (≈ 5.11 µM); in experiment [7] it was 6.25 µg/mL (≈ 20.5 µM).
Turning to `CC(=O)Nc1ccc(S(=O)(=O)n2cnc3c(S)ncnc32)cc1`, the MIC in [1] came to 6.25 µg/mL (≈ 17.9 µM); in experiment [2], 25 µg/mL (≈ 71.6 µM); in [3], 6.25 µg/mL (≈ 17.9 µM); in experiment [4] it was 12.5 µg/mL (≈ 35.8 µM); in experiment [5], 6.25 µg/mL (≈ 17.9 µM); in [6] it was 12.5 µg/mL (≈ 35.8 µM). Moreover, the MIC in experiment [7] was determined as 12.5 µg/mL (≈ 35.8 µM); in experiment [8], 6.25 µg/mL (≈ 17.9 µM); in experiment [9], 6.25 µg/mL (≈ 17.9 µM).
As to `CO[C@H]1/C=C/O[C@@]2(C)Oc3c(C)c(O)c4c(O)c(c(/C=N/N5CCN(C)CC5)c(O)c4c3C2=O)NC(=O)/C(C)=C\C=C\[C@H](C)[C@H](O)[C@@H](C)[C@@H](O)[C@@H](C)[C@H](OC(C)=O)[C@@H]1C` [RIFAMPIN], the minimal inhibitory concentration (MIC) was 0.125 µg/mL (≈ 0.152 µM) in experiment [1]; 0.125 µg/mL (≈ 0.152 µM) in experiment [2]; 0.125 µg/mL (≈ 0.152 µM) in [3]; more than 8 µg/mL in [4]; 0.125 µg/mL (≈ 0.152 µM) in experiment [5]; 0.125 µg/mL (≈ 0.152 µM) in experiment [6]. Moreover, the MIC in [7], in experiment [8] and in [9] was 0.125 µg/mL (≈ 0.152 µM) in each case.

The record behind these values is ChEMBL document CHEMBL1134115, “Antimycobacterial activity of 9-sulfonylated/sulfenylated-6-mercaptopurine derivatives” (Bioorg Med Chem Lett, 2001).
